This is an account of results in article PMC9276577, “SIRT1 pharmacological activation rescues vascular dysfunction and prevents thrombosis in MTHFR deficiency” (Cellular and Molecular Life Sciences: CMLS, 2022).

The target in test [1] is T1, SIRT1 (Homo sapiens, UniProt Q96EB6).
T1 sequence (Q96EB6 2-747): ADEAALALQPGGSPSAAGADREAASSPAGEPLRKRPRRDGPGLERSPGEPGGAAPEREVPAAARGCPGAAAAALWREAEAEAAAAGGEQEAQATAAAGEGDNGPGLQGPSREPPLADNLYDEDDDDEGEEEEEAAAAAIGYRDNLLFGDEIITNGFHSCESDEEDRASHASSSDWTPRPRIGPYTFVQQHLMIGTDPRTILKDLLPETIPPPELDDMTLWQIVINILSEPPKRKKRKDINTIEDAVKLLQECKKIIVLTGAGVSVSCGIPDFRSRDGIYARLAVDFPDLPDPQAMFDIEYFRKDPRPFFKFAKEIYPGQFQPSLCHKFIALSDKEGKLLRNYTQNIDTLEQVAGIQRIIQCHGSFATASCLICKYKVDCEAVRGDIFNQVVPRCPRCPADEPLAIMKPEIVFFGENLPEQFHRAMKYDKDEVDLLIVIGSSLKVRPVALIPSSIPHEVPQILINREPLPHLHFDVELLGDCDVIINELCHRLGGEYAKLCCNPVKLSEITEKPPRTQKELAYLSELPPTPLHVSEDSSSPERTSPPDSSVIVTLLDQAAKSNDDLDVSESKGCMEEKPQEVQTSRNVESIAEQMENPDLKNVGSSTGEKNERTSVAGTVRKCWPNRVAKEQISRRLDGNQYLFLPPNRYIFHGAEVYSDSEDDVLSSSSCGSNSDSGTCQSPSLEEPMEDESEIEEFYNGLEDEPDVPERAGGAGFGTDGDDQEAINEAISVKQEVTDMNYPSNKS
Nature of the test: CETSA in MCF7 cells (Tm raised from […] °C to […] °C). In kind it is cell-based. The arrangement: endogenous SIRT1 in MCF7 cells.

Test [2] concerns the target T1, SIRT1. Nature of the test: NMase-coupled fluorescence deacetylase assay (activation, AC50) on purified SIRT1; binding supported by tyrosine fluorescence quenching and CETSA in MCF7 cells. In kind it is biochemical. Set-up: SIRT1-GST purified from E. coli BL21 (full-length SIRT1 after thrombin cleavage for fluorescence quenching). To be noted: read-out: EC50 (the source's name).

Take `Oc1ccc(/C=C/c2cc(O)cc(O)c2)cc1` [RSV, resveratrol]: the “CETSA in MCF7 cells (Tm raised from 46.5 °C to 51.4 °C)” value on SIRT1 [1] is 51.4 °C.

Take ISIDE11: the AC50 on SIRT1 [2] was 20.11 ± 0.15 µM.
